Laboratory results as given in patent US20220363665A1, “QUINOLINE COMPOUNDS FOR THE TREATMENT OF AUTOIMMUNE DISEASE” (Hoffmann-La Roche Inc., priority 2019, published 2022).

What was measured:
[1] = target: T1, human TLR9 (Homo sapiens, UniProt Q9NR96); assay: HEK293-Blue-hTLR-9 cells assay (SEAP reporter, ODN2006 stimulation); type: cell-based; settings: HEK293-Blue-hTLR9 cells, ODN2006, 20 hrs
T1 construct: host or cells: HEK293 (HEK-Blue hTLR9)
T1 sequence (Q9NR96 26-1032): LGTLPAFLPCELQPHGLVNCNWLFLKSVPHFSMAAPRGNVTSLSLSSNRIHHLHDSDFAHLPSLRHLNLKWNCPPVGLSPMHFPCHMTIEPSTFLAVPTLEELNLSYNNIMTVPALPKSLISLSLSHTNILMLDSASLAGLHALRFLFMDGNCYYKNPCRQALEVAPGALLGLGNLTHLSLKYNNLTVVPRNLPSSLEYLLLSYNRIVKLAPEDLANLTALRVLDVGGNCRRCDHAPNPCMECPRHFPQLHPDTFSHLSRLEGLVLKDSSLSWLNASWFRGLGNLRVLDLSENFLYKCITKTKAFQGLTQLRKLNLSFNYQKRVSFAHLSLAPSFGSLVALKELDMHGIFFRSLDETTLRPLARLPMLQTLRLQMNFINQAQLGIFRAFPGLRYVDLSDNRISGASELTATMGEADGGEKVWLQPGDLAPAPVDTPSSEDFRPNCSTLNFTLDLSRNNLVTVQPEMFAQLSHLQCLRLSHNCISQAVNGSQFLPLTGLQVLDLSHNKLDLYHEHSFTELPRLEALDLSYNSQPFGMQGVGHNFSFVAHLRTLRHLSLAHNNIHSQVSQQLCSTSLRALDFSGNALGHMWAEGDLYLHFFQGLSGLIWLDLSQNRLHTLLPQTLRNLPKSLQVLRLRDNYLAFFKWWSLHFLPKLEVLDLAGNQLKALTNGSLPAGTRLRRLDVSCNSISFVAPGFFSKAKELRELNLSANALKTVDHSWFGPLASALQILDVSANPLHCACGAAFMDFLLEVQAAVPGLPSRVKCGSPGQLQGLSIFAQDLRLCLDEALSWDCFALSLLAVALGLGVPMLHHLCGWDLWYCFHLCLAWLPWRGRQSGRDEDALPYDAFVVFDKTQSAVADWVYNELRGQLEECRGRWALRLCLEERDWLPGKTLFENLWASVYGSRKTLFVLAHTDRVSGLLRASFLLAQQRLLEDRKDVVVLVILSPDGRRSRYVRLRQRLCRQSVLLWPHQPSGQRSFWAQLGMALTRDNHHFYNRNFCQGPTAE
Protocol: The following tests were carried out in order to determine the activity of the compounds of formula (I) in HEK293-Blue-hTLR-7/8/9 cells assay.
HEK293-Blue-hTLR-9 Cells Assay:
A stable HEK293-Blue-hTLR-9 cell line was purchased from InvivoGen (Cat. #. hkb-htlr9, San Diego, Calif., USA). These cells were originally designed for studying the stimulation of human TLR9 by monitoring the activation of NF-κB. A SEAP (secreted embryonic alkaline phosphatase) reporter gene was placed under the control of the […] minimal promoter fused to five NF-κB and AP-1-binding sites. The SEAP was induced by activating NF-κB and AP-1 via stimulating HEK-Blue hTLR9 cells with TLR9 ligands. Therefore the reporter expression was declined by TLR9 antagonist under the stimulation of a ligand, such as ODN2006 (Cat. #: tlrl-2006-1, Invivogen, San Diego, Calif., USA), for incubation of 20 hrs. The cell culture supernatant SEAP reporter activity was determined using QUANTI-Blue™ kit (Cat. #: rep-qbl, Invivogen, San Diego, Calif., USA) at a wavelength of 640 nm, a detection medium that turns purple or blue in the presence of alkaline phosphatase.
HEK293-Blue-hTLR9 cells were incubated at a density of […] cells/mL in a volume of 170 μL, in a 96-well plate in Dulbecco's Modified Eagle's medium (DMEM) containing 4.5 g/L glucose, 50 U/mL penicillin, […], […], 2 mM L-glutamine, 10% (v/v) heat-inactivated fetal bovine serum with addition of 20 μL test compound in a serial dilution in the presence of final DMSO at 1% and 10 μL of 20 uM ODN2006 in above DMEM, perform incubation under 37° C. in a CO2 incubator for 20 hrs. Then 20 μL of the supernatant from each well was incubated with 180 μL Quanti-blue substrate solution at 37° C. for 2 hrs and the absorbance was read at 620˜655 nm using a spectrophotometer. The signalling pathway that TLR9 activation leads to downstream NF-κB activation has been widely accepted, and therefore similar reporter assay was modified for evaluating TLR9 antagonist.

[2] = target: T2, CYP2C9 (Homo sapiens, UniProt P11712); assay: CYP inhibition assay in human liver microsome, CYP2C9; type: in vitro ADME; settings: HLM, diclofenac substrate; for inhibition at 5 min, 10 µM: human, liver microsomes, probe diclofenac, read-out: CYP inhibition % @10 uM (2C9)
T2 construct: tissue BD-Gentest 452117; host or cells: human liver microsomes
Protocol: This is a high throughput screening assay used for assessment of reversible inhibition of CYP2C9, CYP2D6, and CYP3A4 activity of test compounds in human liver microsome (HLM) in early discovery stage.
10 mM DMSO stock solutions of test compounds were diluted in DMSO to generate 2 mM intermediate stock solution. 250 nL of intermediate stock solution were transferred in duplicate into 3 separate 384 well microtitre plates (assay-ready plates). A mixture of HLM and each substrate was made up. 45 μL of HLM substrate mix was then transferred to each well of an assay ready plate and mixed. The negative (solvent) and positive controls (standard inhibitor for each CYP) were included in each assay ready plate. The assay ready plate was warmed to 37° C. in an incubator over 10 minutes. 5 μL pre-warmed NADPH regenerating system was added to each incubation well to start the reaction. Final incubation volume was 50 μL. The assay plate then was placed back in the 37° C. incubator. After 5 minutes incubation (10 minutes for CYP2D6), incubates were quenched by addition of 50 μL quench reagent containing internal standards (400 ng/mL 13C6-4′-OH-Diclofenac, 20 ng/mL D3-Dextrorphan and 20 ng/mL D4-1′OH-Midazolam in acetonitrile). The supernatants were collected for RapidFire/MS/MS analysis.
RapidFire online solid phase extraction/sample injection system (Agilent) coupled with API4000 triple quadrupole mass spectrometer (AB Sciex) were used for sample analysis. The mobile phase composed of acetonitrile and water supplemented with 0.1% formic acid. A C4 solid phase extraction cartridge is used for sample separation. MS detection is achieved in positive ion MRM mode.
Peak areas for substrate, metabolite and internal standard are determined using the
RapidFire integrator software (version 3.6.12009.12296). Peak area ratios (PAR) of metabolite and internal standard (stable-labelled metabolite) are then calculated. The measurement window for each experiment is then defined:
PAR (0% activity)=average PAR for all incubations containing concentrated inhibitor;
Par (100% activity)=average PAR for all incubations containing no inhibitor (DMSO controls);
% Activity (test inhibitor) =[PAR(test inhibitor)-PAR(0% activity)][PAR(100% activity)-PAR(0% activity)];
% Inhibition (test inhibitor)=100-% Activity (test inhibitor).
Percentage inhibition data are then reported, in duplicate, for the 3 CYP enzymes.

T2 sequence (P11712 whole entry): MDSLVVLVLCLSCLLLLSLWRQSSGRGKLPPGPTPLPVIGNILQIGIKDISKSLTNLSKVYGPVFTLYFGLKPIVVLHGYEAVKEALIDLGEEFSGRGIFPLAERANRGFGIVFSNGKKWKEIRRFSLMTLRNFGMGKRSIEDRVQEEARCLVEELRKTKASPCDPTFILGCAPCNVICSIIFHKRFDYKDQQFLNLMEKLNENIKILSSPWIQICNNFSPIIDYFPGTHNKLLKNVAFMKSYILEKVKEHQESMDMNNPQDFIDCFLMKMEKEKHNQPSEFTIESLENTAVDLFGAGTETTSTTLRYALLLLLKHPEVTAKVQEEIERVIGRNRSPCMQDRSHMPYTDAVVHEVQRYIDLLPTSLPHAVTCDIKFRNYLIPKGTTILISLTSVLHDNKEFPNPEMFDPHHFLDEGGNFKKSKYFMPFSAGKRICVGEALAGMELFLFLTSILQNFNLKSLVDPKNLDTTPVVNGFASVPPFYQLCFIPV

IC50 [1] | inhibition at 5 min, 10 µM [2] | SMILES | CYP inhibition % @10 uM (2C9) [2]
14 µM | -17% | Cc1ccc(N2C[C@@H](C)C[C@@H](N)C2)c2cccnc12 [Example 15, (3R,5S)-5-methyl-1-(8-methyl-5-quinolyl)piperidin-3-amine] | –
10.7 µM | – | C[C@@H]1CN(c2ccc(C(F)(F)F)c3ncccc23)C[C@H](C(=O)NC2CC3CNCC32)O1 (single isomer, unassigned) [Example 49A] | −1%
7.3 µM | – | C[C@@H]1CN(c2ccc(C(F)(F)F)c3ncccc23)C[C@H](C(=O)NC2CC3CNCC32)O1 (single isomer, unassigned) [Example 49B] | −2%
> 100 µM | -4% | Cc1ccc(N2C[C@@H](C)O[C@@H](C(=O)NCC3CN(C)CCO3)C2)c2cccnc12 (stereo partly drawn) [Example 17, (2R,6R)-6-methyl-N-[(4-methylmorpholin-2-yl)methyl]-4-(8-methyl-5-quinolyl)morpholine-2-carboxamide] | –
6.3 µM | 12% | C[C@@H]1CN(c2ccc(C(F)(F)F)c3ncccc23)C[C@H](C(=O)N2CCC(N)CC2)O1 [Example 12, (4-amino-1-piperidyl)-[(2R,6R)-6-methyl-4-[8-(trifluoromethyl)-5-quinolyl]morpholin-2-yl]methanone] | –
7.8 µM | 4% | C[C@@H]1CN(c2ccc(C(F)(F)F)c3ncccc23)C[C@H](C(=O)NC2CC3CNCC(C3)C2)O1 (stereo partly drawn) [Example 37, (2R,6R)-N-(3-azabicyclo[3.3.1]nonan-7-yl)-6-methyl-4-[8-(trifluoromethyl)-5-quinolyl]morpholine-2-carboxamide] | –
10.3 µM | -8% | C[C@@H]1CN(c2ccc(C(F)(F)F)c3ncccc23)C[C@H](C(=O)NC2CCCNCC2)O1 (stereo partly drawn) [Example 8, (2R,6R)-N-(azepan-4-yl)-6-methyl-4-[8-(trifluoromethyl)-5-quinolyl]morpholine-2-carboxamide] | –
28.1 µM | -8% | C[C@@H]1CN(c2ccc(C(F)(F)F)c3ncccc23)C[C@H](C(=O)NC[C@@H]2C[C@@H](F)CN2)O1 [Example 27, (2R,6R)-N-[[(2S,4R)-4-fluoropyrrolidin-2-yl]methyl]-6-methyl-4-[8-(trifluoromethyl)-5-quinolyl]morpholine-2-carboxamide] | –
11.4 µM | -12% | C[C@@H]1CN(c2ccc(C(F)(F)F)c3ncccc23)C[C@H](C(=O)NCC2CCCCN2C)O1 (stereo partly drawn) [Example 4, (2R,6R)-6-methyl-N-[(1-methyl-2-piperidyl)methyl]-4-[8-(trifluoromethyl)-5-quinolyl]morpholine-2-carboxamide] | –
46 µM | -13% | C[C@@H]1CN(c2ccc(Cl)c3ncccc23)C[C@H](C(=O)NCC2CN(C)CCO2)O1 (stereo partly drawn) [Example 26, (2R,6R)-4-(8-chloro-5-quinolyl)-6-methyl-N-[(4-methylmorpholin-2-yl)methyl]morpholine-2-carboxamide] | –
81.9 µM | -1% | C[C@@H]1CN(c2ccc(C(F)(F)F)c3ncccc23)C[C@H](C(=O)NCC2CN(C)CCO2)O1 (stereo partly drawn) [Example 3, (2R,6R)-6-methyl-N-[(4-methylmorpholin-2-yl)methyl]-4-[8-(trifluoromethyl)-5-quinolyl]morpholine-2-carboxamide] | –
> 100 µM | 20% | C[C@@H]1CN(c2ccc(C(F)(F)F)c3ncccc23)C[C@H](C(=O)NC[C@@H]2CC(F)(F)CN2)O1 [Example 30] | –
15.5 µM | -1% | C[C@@H]1CN(c2ccc(C(F)(F)F)c3ncccc23)C[C@H](C(=O)NC2CCN(C)CC2)O1 [Example 5, (2R,6R)-6-methyl-N-(1-methyl-4-piperidyl)-4-[8-(trifluoromethyl)-5-quinolyl]morpholine-2-carboxamide] | –
> 100 µM | 23% | C[C@@H]1CN(c2ccc(C(F)(F)F)c3ncccc23)C[C@H](C(=O)NC2CNCC(F)(F)C2)O1 (stereo partly drawn) [Example 28, (2R,6R)-N-(5,5-difluoro-3-piperidyl)-6-methyl-4-[8-(trifluoromethyl)-5-quinolyl]morpholine-2-carboxamide] | –

SMILES | IC50 [1] | inhibition at 5 min, 10 µM [2] | CYP inhibition % @10 uM (2C9) [2]
C[C@@H]1CN(c2ccc(C(F)(F)F)c3ncccc23)C[C@H](C(=O)NC2CC3CCCC(C2)N3)O1 (single isomer, unassigned) [Example 34B] | 10 µM | – | −8%
C[C@@H]1CN(c2ccc([N+](=O)[O-])c3ncccc23)C[C@H](C(=O)NC2CCN(C)CC2)O1 [Example 20, (2R,6R)-6-methyl-N-(1-methyl-4-piperidyl)-4-(8-nitro-5-quinolyl)morpholine-2-carboxamide] | 14.9 µM | -6% | –
C[C@@H]1CN(c2ccc(C(F)(F)F)c3ncccc23)C[C@H](C(=O)NC2CC3CCCC(C2)N3)O1 (single isomer, unassigned) [Example 34A] | 8.5 µM | – | −6%
C[C@@H]1CN(c2ccc(C(F)(F)F)c3ncccc23)C[C@H](C(=O)NC2CN(C)CC23CC3)O1 (stereo partly drawn) [Example 9, (2R,6R)-6-methyl-N-(5-methyl-5-azaspiro[2.4]heptan-7-yl)-4-[8-(trifluoromethyl)-5-quinolyl]morpholine-2-carboxamide] | 10.9 µM | 2% | –
